# Entries after “also recorded” stand apart in the source; their conditions may differ.
# Key:
# [1] = test system: human breast cancer cell lines (MCF7, ZR75, T47D); test: Neutral red dye uptake assay (in vitro cytotoxicity), human breast cancer cell lines; type: cell-based; conditions: 10 to 0.3125 μg/ml, 20 hours incubation, average of 2 experiments, actual concentration reaching the cells unknown
# Description: For purposes of using a rapid, simple and cheap method of pre-screening cytotoxicity, we chose the neutral red dye uptake procedure to test such activity in the given extract.
# Human breast and ovarian cancer cell lines were maintained in RPMI 1640 culture medium supplemented with 10% fetal calf serum, 2 mm L-glutamine and penicillin, streptomycin and fungizone. Cells were passaged by trypsinization and plated in 96-well flat-bottomed tissue culture plates at 5×10^4 cells per well. Cells were preincubated for 6 hours at 37° C., 5% CO2 in a humidified atmosphere to allow cell attachment prior to addition of the extract.
# Persin was dissolved in DMF (supplied by National Research Centre for Environmental Toxicology) to give a stock solution of 100 μg/ml. […] 10 μl of the solution was added to quadruplicate wells in doubling dilution from 10 μg/ml to 0.3125 μg/ml (final concentration). Control wells had tissue culture diluent added only. DMF controls had DMF added to a final concentration of 0.1%. The extract was incubated with the cells for 20 hours before being gently aspirated. Cells were washed twice with Hanks Balanced Salt Solution (HBSS) with centrifugation in special microtiter plate carriers between washes so as not to lose viable but dislodged cells.
# Neutral red was prepared fresh before each experiment from a 1% stock solution. One hundred microtiters of working solution (67 μg/ml in HBSS) was added to all wells and incubation continued for a further 4 hours. Non-absorbed dye was removed by washing cells as described above.
# Absorbed dye was extracted from cells by adding 100 μl of 50% ethanol in 1% acetic acid.
# Plates were mixed thoroughly to allow full extraction of the dye and were then read in a Multiscan plate reader at 540 nm. Dose response curves were constructed by plotting the percentage of untreated/control well OD540 versus concentration of extract. Individual extract concentration points were tested in quadruplicate and the results presented are averaged from 2 separate experiments. […]
# lactating mammary gland [2] = type: in vivo, mouse; conditions: for activity in inducing widespread lactating mammary gland necrosis: 50-100 mg/kg body weight
# Description: (§1) White lactating female Quackenbush mice of body weight 40-50 g were used. All animal experiments followed the code of practice for the care and use of animals for experimental purposes as outlined by the Australian National Health and Medical Research Council. For the toxicity testing of leaf and crude extracts, on the fourth day after parturition the litter of each mouse was reduced to eight pups and weights of dam and litter respectively recorded. The dam was then separated from the litter and fasted overnight. On the following day and for 24 hours thereafter, the dam was offered 20 g of powdered commercial rodent diet containing 5% of powdered freeze-dried avocado leaf. In the case of preliminary organic extracts of the leaf, equivalent quantities were added to 20 g of powdered rodent diet, mixed thoroughly and the solvent evaporated under reduced pressure. After 24 hours on the medicated diet, regular untreated cubed diet was provided and the litter restored to the dam. At later stages of the isolation and purification of the active principle, the compound was suspended in up to 1 ml of 1% Tween 80 or Intralipid and given as a single dose by gavage on days 4 to 5 of lactation without prior fasting of the dam and simultaneous temporary removal of her pups. The dam and her pups were weighed daily. […] From 3 to 7 days after exposure to the avocado supplemented diet, or gavage of the purified extracts as the case may be, the dam was euthanased with carbon dioxide and all mammary glands and heart removed and fixed in buffered neutral 10% formalin for pathological examination.
# The R and S isomers of persin were tested for activity required to induce widespread lactating mammary gland necrosis at the dose rate of 50-100 mg/kg body weight.
# lactating mammary gland [3] = conditions: Craigmill et al. (1989), cited from earlier work
# avocado lipoxygenase = conditions: declines during ripening of the fruit; cited from earlier work
# lactating mammary gland [4] = type: in vivo; conditions: even as high single dose 200 mg/kg, mouse
# [5] = test system: human colon cancer cell line (LS174T); test: Neutral red dye uptake assay (in vitro cytotoxicity), human colon cancer cell line; type: cell-based; conditions: any dose tested (10 to 0.3125 μg/ml), 20 hours
# [6] = test system: Colletotrichum gloeosporioides; conditions: cited from earlier work
# silkworm larvae = conditions: isolated from avocado leaves; Chang et al. 1975; cited from earlier work
# [7] = test system: heat and lactating mammary gland of the mouse; conditions: Sani et al., 1993 symposium; cited from earlier work
# myocardium = test: Pathological effects on the myocardium after oral dosing; type: in vivo, mouse
# Description: as §1
# [8] = as above; type: in vivo, mouse; conditions: myocardium; mouse, oral; read-out: dose above which necrosis of myocardial fibres may occur
# Description: as §1
structure (smiles),measurement,setting,value
"CCCCCCCCCCCCCCCCCC(=O)C[C@@H](O)COC(C)=O [RMC328, (R)-2-Hydroxy-4-oxohenicosan-1-yl Acetate]",sensitivity of human breast cancer cell lines relative to other cell lines (neutral red uptake),[1],the three human breast cancer cell lines showing the greatest sensitivity to the compounds
CCCCC/C=C\C/C=C\CCCCCCCC(=O)CC(O)COC(C)=O (racemic) [mixture of isomers in equal proportions],activity in inducing widespread lactating mammary gland necrosis,lactating mammary gland [2]; mouse,less active than the R isomer
COc1cc2c(c(OC)c1OC)-c1ccc(OC)c(=O)cc1[C@@H](NC(C)=O)CC2 [colchicine],mechanism: microtubule inhibition,lactating mammary gland [3],microtubule inhibitors
same,effect on milk ejection from secretory acinar cells,lactating mammary gland [3]; locally applied to the acinar cells,prevent ejection of milk from the cells into the acinar lumen
Oc1cc(O)c2c(c1)O[C@H](c1ccc(O)c(O)c1)[C@H](O)C2 [epicatechin],inhibition of avocado lipoxygenase,avocado lipoxygenase,inhibitor of the enzyme
"CCCCC/C=C\C/C=C\CCCCCCCC(=O)C[C@H](O)COC(C)=O [S isomer, (2S)-2-hydroxy-4-oxo-henicosa-12Z,15Z-dien-1-yl acetate]",activity in inducing widespread lactating mammary gland necrosis (high single dose),lactating mammary gland [4],inactive
"CCCCC/C=C\C/C=C\CCCCCCCC(=O)C[C@@H](O)COC(C)=O [persin, (+)-(Z,Z)-1-acetyloxy-2-hydroxy-12,15-heneicosadien-4-one]",effect on human colon cancer cell line (neutral red uptake),[5],not affected by the extract at any dose tested
same,antifungal activity,"[6]; isolated from avocado fruit peel or whole fruits, refs (ii) to (xiii)",exhibits antifungal activity in relation to the fungus Colletotrichum gloeosporioides
same,loss of activity on double bond oxidation,"[6]; natural compound, reference (v)",loses activity due to double bond oxidation
same,growth of silkworm larvae,silkworm larvae,inhibited the growth of silkworm larvae
same,toxicity for heart and lactating mammary gland,[7],responsible for demonstrated toxicity for the heat and lactating mammary gland of the mouse
same,myocardium histology (FIG. 9C),"myocardium; 100 mg/kg orally, seven days previously",marked atrophy of muscle fibres (M) interstitial haemorrhage (H) and early scar tissue formation (S)
same,myocardial fibrosis,"myocardium; doses above 100 mg/kg, animals surviving for seven days",areas of myocardial fibrosis can be observed in animals surviving for seven days
same,hydrothorax / pulmonary oedema,"myocardium; doses above 100 mg/kg, more severely affected animals",Hydrothoraz and/or pulmonary oedema may be present in more severly affected animals
same,damage to heart muscle,myocardium; present studies,causes damage both to the lactating mammary gland and the heart muscle
same,NOAEL,[8],> 100 mg/kg
same,sensitivity of human breast cancer cell lines relative to other cell lines (neutral red uptake),[1],Three human breast cancer cell lines showed greater sensitivity to the extract than other cell lines tested; also recorded: the three human breast cancer cell lines showing the greatest sensitivity to the compounds
same,sensitivity of human breast cancer cell lines relative to other cell lines (neutral red uptake),[1]; listed as extract,the human breast cancer cell lines were more sensitive to the extract than the other cell lines
same,activity in inducing widespread lactating mammary gland necrosis,lactating mammary gland [2]; mouse,active
same,mammary epithelium histology (FIG. 9A),lactating mammary gland [2]; 72 hours after single oral dose of 60 mg/kg on 4th day of lactation,extensive coagulative necrosis of the secretory tissues
same,"single oral dose required to induce widespread, non-fatal injury to the lactating mammary gland","lactating mammary gland [2]; mouse, single oral dose",60 to 100 mg/kg
same,character of the mammary gland injury,"lactating mammary gland [2]; mouse, single oral dose, 60 to 100 mg/kg","interstitial oedema, congestion and haemorrhage and coagulative necrosis with desquamation of the acinar epithelial cells thereby preventing lactation"
same,inhibition of milk secretion,lactating mammary gland [2]; oral dosing,inhibition of milk secretion through such a necrogenic action on the secretory epithelium
same,damage to lactating mammary gland,lactating mammary gland [2]; present studies,causes damage both to the lactating mammary gland and the heart muscle
